From US20110112121A1, “Pharmaceutical Compositions and Solid Forms” (priority 2009, published 2011)
Several values for one entry are separate records, joined by “and”; a condition that tells them apart may be missing. Equal entries are not always repeated.

Tests used:
[1] = Stability of crystal forms under ambient conditions; assay type: physicochemical
[2] = system: dermal angiogenesis; assay: Matrigel assay in domestic pigs; assay type: in vivo
Method: (§1) Vascular endothelial growth factors (VEGFs) have angiogenic and vascular permeability-promoting activities in vitro and in vivo. […] Young domestic pigs were used because pig skin is very similar to human skin in architecture and permeability for xenobiotics. Inhibition of dermal angiogenesis related to the agent of the invention was tested with an “matrigel” assay which was developed for studies in pigs; inhibition of vascular permeability in the skin with a modified Miles assay. With matrigel implants into which endothelial cells immigrate to form new vessels anti-angiogenic effects of applied test articles can be assessed in vivo; with the Miles assay, extravasation of Evans blue-labeled albumin is measured after VEGF-induced vascular leakage.
Method: Test areas on both paramedian ventral abdominal sides of 16-18 kg weighing domestic pigs were topically treated with 0.5% 6-(6-hydroxymethyl-pyrimidin-4-yloxy)-naphthalene-1-carboxylic acid (3-trifluoromethyl-phenyl)-amide or the vehicle (ethanol/propylene glycol 3/7) alone. Treatment was performed twice daily on days 1-4. On day 2, 100 μl matrigel, loaded with the angiogenic factors […] VEGF-165 and 40 U/ml heparin were injected intradermally at 10 different sites of the treated areas. On day 5, the animals were sacrificed and 8 mm punches from the injection sites collected, the subcutaneous fatty tissue removed, the hemorrhagic plugs carefully dissected and weighed. Thereafter, the samples were digested with dispase and single cell suspensions prepared. The isolated cells were stained with the endothelial cell marker CD31 or isotype controls and analyzed with FACS after gating for endothelial cells.

[3] = system: VEGF-induced extravasation; assay: Miles assay in domestic pigs; assay type: in vivo
Method: as §1
Method: Test areas of 5×20 cm on both paramedian ventral abdominal sides of 16-18 kg weighing domestic pigs were topically treated with 1 ml of 0.8% 6-(6-hydroxymethyl-pyrimidin-4-yloxy)-naphthalene-1-carboxylic acid (3-trifluoromethyl-phenyl)-amide trice (30, 7 and 3 hrs prior to elicitation of vascular leakage with VEGF). […] Evans blue was extracted from the biopsies with 0.5 ml formamide and the concentration of Evans blue in the supernatants was measured photometrically. […]

[4] = Solubility of the agent in hydrophilic and hydrophobic media; assay type: physicochemical; details: hydrophilic and hydrophobic media (aqueous and oily media)
[5] = 0.5% in ethanol:propylene glycol 3/7, topical twice daily days 1-4, plugs excised day 5

Compound | stability of the modification (in words) [1] | difference in CD31+ cell number vs vehicle-treated sites ([2]; 0.5% epicutaneously, gated on endothelial cells) [%] | plug weight less than vehicle-treated sites ([2]; 0.5% epicutaneously, vs vehicle) [%] | Cell counts (CD31+)/μl, gated on endothelial cells [2, 5] [µL⁻¹] | Weight (mg) of excised plugs [2, 5] | inhibition of VEGF-induced extravasation ([3]; 0.8% agent topically 30, 7 and 3 hrs before VEGF 165, vs placebo) [%] | Evans blue concentration (μg/ml tissue extract) ([3]; 0.8% agent, 1 ml topically 30, 7 and 3 hrs before VEGF 165 injection, biopsies 30 min after challenge) | solubility properties (in words) [4]
O.O=C(Nc1cccc(C(F)(F)F)c1)c1cccc2cc(Oc3cc(CO)ncn3)ccc12.O=C(Nc1cccc(C(F)(F)F)c1)c1cccc2cc(Oc3cc(CO)ncn3)ccc12 [Crystal form B, 6-(6-Hydroxymethyl-pyrimidin-4-yloxy)-naphthalene-1-carboxylic acid (3-trifluoromethyl-phenyl)-amide hemihydrate, modification B] | particularly stable modification |  |  |  |  |  |  | 
O=C(Nc1cccc(C(F)(F)F)c1)c1cccc2cc(Oc3cc(CO)ncn3)ccc12 [agent of the invention, 6-(6-hydroxymethyl-pyrimidin-4-yloxy)-naphthalene-1-carboxylic acid (3-trifluoromethyl-phenyl)-amide] |  | 66 | 19 | 353 | 88 mg and 87.8 mg | 24 | 1.26 (0.13)++ μg/ml tissue extract | very poor solubility properties
